In article PMC6958387, “Biological Evaluation of Arylsemicarbazone Derivatives as Potential Anticancer Agents” (Pharmaceuticals, 2019):

Columns and labels:
[1] = tested on: Peripheral Blood Mononuclear Cells (PBMCs); assay: MTT cytotoxicity in normal cells, 72 h; assay type: cell-based, human; conditions: Homo sapiens, PBMC, 72 h of incubation
Experimental: In order to evaluate the cytotoxic potential in normal cells, all the derivatives were tested against Peripheral Blood Mononuclear Cells (PBMCs) and the most promising compounds were again compounds 3c and 4a, which offered more selectivity against the cancer cells.
Mononuclear cells were obtained from the peripheral blood of healthy volunteers by heparin tube collection and isolated by Ficoll-Histopaque gradient centrifugation. After centrifugation, the cells were harvested, washed and resuspended in RPMI 1640 medium supplemented with 20% fetal bovine serum, 2 mM glutamine, 100 U/mL penicillin and 100 μg/mL streptomycin (Gibco™ Life Technologies, Waltham, MA, USA). The phytohemagglutinin mitogen 2% was also added into the culture medium. After that, using the neubauer chamber, the cells were counted and plated in a 96-well plate at a concentration of 10^6 cells/mL and then were maintained for overnight under incubation at 37 °C and 5% CO2 [65].
(§1) The evaluation of the cytotoxicity of the compounds was performed by the method of 3-(4,5-dimethyl-2-thiazolyl)-2,5-diphenyl-2H-tetrazolium bromide (MTT) (Sigma Aldrich Co., St. Louis, MO, USA). To perform the assay the cells were seeded in 96-well plates at the following concentrations: HL-60 and K562 (0.3 × 10^6 cells/mL); MOLT-4 and PBMC (10^6 cells/mL); NCI-H292, HT-29, HEp-2 e MCF-7 (10^5 cells/mL). Briefly, the compounds previously dissolved in DMSO (dimethylsulfoxide, Vetec, São Paulo, Brazil), were diluted in medium and added to each well at the desired concentrations. For the calculation of the concentration that inhibits 50% of cell growth (IC50) the compounds were serially diluted to obtain the final concentrations between 0.19–25 μg/mL. Doxorubicin was used as the standard in the concentration range between (0.078–10 μg/mL). After 72 h of contact of the cells with the compounds, it was added to each well 25 μL of MTT solution (5 mg/mL). Plates were left for another 3 h in incubator at 37 °C and at the end of that period the supernatant was aspirated. To perform the reading, 100 μL of DMSO was added in each well for the dissolution of the formazan crystals. The amount of formazan was measured by reading the plate at 560 nm absorbance. The IC50 was calculated from the nonlinear regression in the Prisma 7.0 software (GraphPad, San Diego, CA, USA). Each sample was tested in triplicate in three independent experiments.

CDK5/p25 = target: T1, CDK5/p25 (Homo sapiens, UniProt Q00535); assay: Kinase inhibition assay (ADP-Glo); assay type: biochemical; conditions: 10 µM ATP
T1 construct: made in house; host or cells: bacteria
T1 sequence (Q00535 whole entry): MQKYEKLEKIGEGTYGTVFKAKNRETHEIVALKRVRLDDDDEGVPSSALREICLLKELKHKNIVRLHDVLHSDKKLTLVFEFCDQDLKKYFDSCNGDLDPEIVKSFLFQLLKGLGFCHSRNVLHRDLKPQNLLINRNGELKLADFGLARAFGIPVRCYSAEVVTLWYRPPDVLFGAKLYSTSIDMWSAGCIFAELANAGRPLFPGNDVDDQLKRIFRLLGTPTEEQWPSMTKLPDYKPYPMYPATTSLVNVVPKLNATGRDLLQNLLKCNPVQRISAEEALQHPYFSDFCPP
T1 sequence (Q15078 99-307 partner limits assumed): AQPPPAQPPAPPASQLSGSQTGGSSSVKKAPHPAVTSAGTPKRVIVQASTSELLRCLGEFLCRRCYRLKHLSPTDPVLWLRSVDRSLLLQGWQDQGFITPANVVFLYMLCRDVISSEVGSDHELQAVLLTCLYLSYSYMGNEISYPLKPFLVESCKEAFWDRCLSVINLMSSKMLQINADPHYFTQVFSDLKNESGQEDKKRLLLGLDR
Experimental: HsCDK5/p25 (human, recombinant, expressed in bacteria) was assayed in buffer A, with 0.8 µg/µL of histone H1 as substrate.

CDK2/CyclinA = CDK2/CyclinA (Homo sapiens, UniProt P24941); assay: Kinase inhibition assay (ADP-Glo); assay type: biochemical; conditions: 10 µM ATP
Experimental: HsCDK2/CyclinA (human, cyclin-dependent kinase-2, kindly provided by Dr. A. Echalier-Glazer, Leicester, UK) was assayed in buffer A with 0.8 µg/µL of histone H1 as substrate.

HASPIN = target: T2, HASPIN (Homo sapiens, UniProt Q8TF76); assay: Kinase inhibition assay (ADP-Glo); assay type: biochemical; conditions: 10 µM ATP
T2 construct: kinase domain, amino acids 470 to 798; made in house; host or cells: bacteria
T2 sequence (Q8TF76 470-798): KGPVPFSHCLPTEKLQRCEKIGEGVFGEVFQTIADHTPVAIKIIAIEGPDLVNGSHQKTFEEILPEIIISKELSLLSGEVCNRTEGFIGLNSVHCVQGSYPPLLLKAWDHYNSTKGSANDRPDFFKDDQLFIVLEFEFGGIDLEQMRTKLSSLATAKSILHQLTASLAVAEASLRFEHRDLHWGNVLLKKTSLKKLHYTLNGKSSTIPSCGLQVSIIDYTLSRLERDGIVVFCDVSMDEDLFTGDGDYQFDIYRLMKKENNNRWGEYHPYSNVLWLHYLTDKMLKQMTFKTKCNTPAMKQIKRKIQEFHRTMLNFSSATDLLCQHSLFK
Experimental: HsHASPIN (human, kinase domain, amino acids 470 to 798, recombinant, expressed in bacteria) was assayed in buffer A with 0.007 µg/µL of Histone H3 (1-21) peptide ([…]) as substrate;

CLK1 = target: T3, CLK1 (Mus musculus, UniProt P22518); assay: Kinase inhibition assay (ADP-Glo); assay type: biochemical; conditions: 10 µM ATP
T3 construct: made in house; host or cells: bacteria
T3 sequence (P22518 whole entry): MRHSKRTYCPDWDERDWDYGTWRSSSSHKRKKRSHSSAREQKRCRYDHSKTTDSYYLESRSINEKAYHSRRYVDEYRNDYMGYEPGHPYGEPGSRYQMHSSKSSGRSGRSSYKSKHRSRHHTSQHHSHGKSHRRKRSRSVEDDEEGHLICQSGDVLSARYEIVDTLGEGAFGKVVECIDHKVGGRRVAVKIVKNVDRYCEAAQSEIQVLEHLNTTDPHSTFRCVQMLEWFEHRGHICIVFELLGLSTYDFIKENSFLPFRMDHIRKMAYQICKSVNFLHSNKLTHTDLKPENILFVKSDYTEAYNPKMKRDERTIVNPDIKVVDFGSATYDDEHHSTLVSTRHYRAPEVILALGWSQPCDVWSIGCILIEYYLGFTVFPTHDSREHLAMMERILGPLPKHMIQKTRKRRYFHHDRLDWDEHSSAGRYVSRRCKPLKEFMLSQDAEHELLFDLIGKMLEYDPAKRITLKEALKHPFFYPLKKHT
Experimental: MmCLK1 (from Mus musculus, recombinant, expressed in bacteria) was assayed in buffer A with 0.027μg/µL of the following peptide: GRSRSRSRSRSR as substrate.

AURKB = target: T4, AURKB (Homo sapiens, UniProt Q96GD4); assay: Kinase inhibition assay (ADP-Glo); assay type: biochemical; conditions: 10 µM ATP
T4 construct: purchased SignalChem A31-10G; host or cells: Sf9 insect cells (baculovirus)
T4 sequence (Q96GD4 whole entry): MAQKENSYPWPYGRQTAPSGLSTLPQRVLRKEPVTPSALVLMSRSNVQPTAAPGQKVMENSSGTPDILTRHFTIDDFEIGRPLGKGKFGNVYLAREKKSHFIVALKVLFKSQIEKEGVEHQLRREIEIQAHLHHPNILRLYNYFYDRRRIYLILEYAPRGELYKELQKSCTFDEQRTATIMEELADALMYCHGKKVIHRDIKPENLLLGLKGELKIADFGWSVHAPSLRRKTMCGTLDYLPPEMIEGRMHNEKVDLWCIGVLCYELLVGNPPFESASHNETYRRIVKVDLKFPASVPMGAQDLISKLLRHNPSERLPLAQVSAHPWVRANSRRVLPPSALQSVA

CDK9/CyclinT = CDK9/CyclinT (Homo sapiens, UniProt P50750); assay: Kinase inhibition assay (ADP-Glo)
Chain of CDK9/CyclinT (P50750 whole entry): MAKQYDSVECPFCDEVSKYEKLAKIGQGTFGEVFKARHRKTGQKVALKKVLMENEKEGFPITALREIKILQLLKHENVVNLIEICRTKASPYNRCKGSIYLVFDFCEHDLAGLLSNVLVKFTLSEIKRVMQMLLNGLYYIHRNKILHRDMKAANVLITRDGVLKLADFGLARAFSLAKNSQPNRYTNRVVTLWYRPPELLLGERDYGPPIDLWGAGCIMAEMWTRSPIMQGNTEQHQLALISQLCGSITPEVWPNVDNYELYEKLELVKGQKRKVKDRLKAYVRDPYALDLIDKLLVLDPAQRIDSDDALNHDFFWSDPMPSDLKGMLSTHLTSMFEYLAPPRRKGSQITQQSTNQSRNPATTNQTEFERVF
Chain of CDK9/CyclinT (O60563 whole entry partner): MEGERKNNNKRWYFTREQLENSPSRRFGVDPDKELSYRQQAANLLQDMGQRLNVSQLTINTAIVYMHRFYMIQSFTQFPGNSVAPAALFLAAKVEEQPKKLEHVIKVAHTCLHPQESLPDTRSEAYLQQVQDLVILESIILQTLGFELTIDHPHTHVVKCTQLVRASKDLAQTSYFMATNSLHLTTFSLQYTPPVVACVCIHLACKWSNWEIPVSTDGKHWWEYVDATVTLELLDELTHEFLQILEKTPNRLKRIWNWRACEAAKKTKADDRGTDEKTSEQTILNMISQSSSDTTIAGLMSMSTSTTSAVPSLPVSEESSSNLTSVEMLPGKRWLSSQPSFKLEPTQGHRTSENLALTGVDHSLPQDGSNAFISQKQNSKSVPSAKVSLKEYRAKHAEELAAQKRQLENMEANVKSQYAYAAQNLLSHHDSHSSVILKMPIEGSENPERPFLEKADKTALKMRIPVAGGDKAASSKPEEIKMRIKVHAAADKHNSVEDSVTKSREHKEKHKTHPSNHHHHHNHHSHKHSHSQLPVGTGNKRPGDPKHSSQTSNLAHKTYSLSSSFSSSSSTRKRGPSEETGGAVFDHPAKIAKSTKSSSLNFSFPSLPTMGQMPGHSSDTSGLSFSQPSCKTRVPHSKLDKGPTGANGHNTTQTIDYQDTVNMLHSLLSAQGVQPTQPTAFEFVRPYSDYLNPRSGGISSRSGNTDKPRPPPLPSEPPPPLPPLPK
Experimental: The protein kinases studied were: CDK2/CyclinA, CDK5/p25, CDK9/CyclinT (cyclin-dependent kinases), HASPIN (haploid germ cell-specific nuclear protein kinase), PIM1 (PIM family kinase 1), CLK1 (cdc2-like kinase 1), DYRK1A (dual-specificity tyrosine phosphorylation regulated kinase), CK1δ/ε (casein kinase 1 isoforms), GSK3α/β (glycogen synthase kinase 3) and AURKB (aurora kinase B). Initially, all compounds were first tested at 10 μM. […] Compounds displaying more than 50% inhibition at 10 μM were next tested over a wide range of concentrations (usually 0.01–10 μM), and IC50 values were determined from the dose-response curves (Sigma-Plot).
Kinase activities were assayed in appropriate kinase buffer, with either protein or peptide as substrate in the presence of 10 µM ATP in a final volume of 6 µL using the ADP-Glo^TM assay kit (Promega, Madison, WI, USA, as described in Zegzouti et al. [66]). Controls were performed with appropriate dilutions of dimethylsulfoxide (solvent of the tested compounds).
The buffers used for kinase assays are the following: (A) 10 mM MgCl2, 1 mM EGTA, 1 mM DTT, 25 mM Tris-HCl pH 7.5, 50 µg/mL heparin; (B) 25 mM MOPS, pH 7.2, 12.5 mM -glycerolphosphate, 25 mM MgCl2, 5 mM EGTA, 2 mM EDTA, 0.25 mM DTT.

CK1δ/ε = assay: Kinase inhibition assay (ADP-Glo); assay type: biochemical, Sus scrofa domesticus; conditions: 10 µM ATP
Experimental: SscCK1δ/ε (Sus scrofa domesticus, casein kinase 1δ/ε, affinity purified from porcine brain) was assayed in buffer A, with 0.022 μg/μL of the following peptide: RRKHAAIGSpAYSITA (“Sp” stands for phosphorylated serine) as CK1-specific substrate.

K562 = assay: MTT cytotoxicity, 72 h; assay type: cell-based, human; conditions: Homo sapiens, K562, 72 h of incubation
Experimental: (§2) The cytotoxicity assessment was performed against three human cancer cell lines in suspension (K562, HL-60 and MOLT-4) and four adhered (HEp-2, NCI-H292, HT-29 and MCF-7).
(§3) The cells were obtained from the Cell Bank of Rio de Janeiro and maintained in the Laboratory of Cell Culture of the Department of Antibiotics of the Federal University of Pernambuco. The lines K562 (myeloblastic leukaemia), HL-60 (promyelocytic leukemia) and MOLT-4 (lymphoblastic leukemia) were cultured in RPMI 1640 medium and the lines HEp-2 (larynx carcinoma), NCI-H292 (lung carcinoma), HT-29 (colon adenocarcinoma) and MCF-7 (breast adenocarcinoma) were cultured in DMEM medium, supplemented with 10% fetal bovine serum, 2 mM glutamine, 100 U/mL penicillin and 100 μg/mL streptomycin (Gibco™ Life Technologies), at 37 °C and 5% CO2.
as §1

MCF-7 = assay: MTT cytotoxicity, 72 h; assay type: cell-based, human; conditions: Homo sapiens, MCF7, 72 h of incubation
Experimental: as §2, §3, §1

HEp-2 = assay: MTT cytotoxicity, 72 h; assay type: cell-based, human; conditions: Homo sapiens, HEp-2, 72 h of incubation
Experimental: as §2, §3, §1

MOLT-4 = assay: MTT cytotoxicity, 72 h; assay type: cell-based, human; conditions: Homo sapiens, MOLT-4, 72 h of incubation
Experimental: as §2, §3, §1

NCI-H292 = assay: MTT cytotoxicity, 72 h; assay type: cell-based, human; conditions: Homo sapiens, NCI-H292, 72 h of incubation
Experimental: as §2, §3, §1

HT-29 = assay: MTT cytotoxicity, 72 h; assay type: cell-based, human; conditions: Homo sapiens, HT-29, 72 h of incubation
Experimental: as §2, §3, §1

HL-60 = assay: MTT cytotoxicity, 72 h; assay type: cell-based, human; conditions: Homo sapiens, HL-60; MTT, 72 h of incubation
Experimental: as §2, §3, §1

GSK3 α/β = assay: Kinase inhibition assay (ADP-Glo); assay type: biochemical, Sus scrofa domesticus; conditions: 10 µM ATP
Experimental: SscGSK-3α/β (Sus scrofa domesticus, glycogen synthase kinase-3, affinity purified from porcine brain) was assayed in buffer A with 0.010 µg/µL of GS-1 peptide, a GSK-3-selective substrate ([…]pEDEEE, “Sp” stands for phosphorylated serine).

PIM1 = target: T5, PIM1 (Homo sapiens, UniProt P11309); assay: Kinase inhibition assay (ADP-Glo); assay type: biochemical; conditions: 10 µM ATP
T5 construct: made in house; host or cells: bacteria
T5 sequence (P11309 whole entry): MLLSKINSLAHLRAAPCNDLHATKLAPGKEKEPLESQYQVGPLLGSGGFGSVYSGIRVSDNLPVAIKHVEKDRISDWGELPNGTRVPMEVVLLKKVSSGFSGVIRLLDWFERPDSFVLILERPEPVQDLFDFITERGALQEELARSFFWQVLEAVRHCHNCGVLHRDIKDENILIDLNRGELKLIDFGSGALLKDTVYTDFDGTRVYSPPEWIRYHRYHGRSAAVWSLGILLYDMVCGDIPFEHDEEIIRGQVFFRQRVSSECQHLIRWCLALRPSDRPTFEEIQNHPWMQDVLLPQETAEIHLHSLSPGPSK
Experimental: HsPIM1 (human proto-oncogene, recombinant, expressed in bacteria) was assayed in buffer B with 0.8 µg/µL of histone H1 (Sigma #H5505) as substrate.

DYRK1A = target: T6, DYRK1A (Rattus norvegicus, UniProt Q63470); assay: Kinase inhibition assay (ADP-Glo); assay type: biochemical; conditions: 10 µM ATP
T6 construct: amino acids 1 to 499 including the kinase domain; made in house; host or cells: bacteria
Experimental: RnDYRK1A (Rattus norvegicus, amino acids 1 to 499 including the kinase domain, recombinant, expressed in bacteria, DNA vector kindly provided by Dr. W. Becker, Aachen, Germany) was assayed in buffer A with 0.033 μg/µL of the following peptide: KKISGRLSPIMTEQ as substrate.

[2] = tested on: K562, HL-60, MOLT-4, HEp-2, NCI-H292, HT-29 and MCF-7 tumor cell lines; assay: Cytotoxic screening against the panel of tumor cell lines (MTT); assay type: cell-based, human; conditions: result in words
Experimental: as §2, §3
as §1, with “Plates were left for another 3 h in incubator at 37 °C and at the end of that period the supernatant was aspirated.” left out, “Each sample was tested in triplicate in three independent experiments.” left out

HL-60 cells [3] = assay: Mitochondrial transmembrane potential (rhodamine 123), flow cytometry; assay type: cell-based, human; conditions: 0.11 μM, 72 h
Experimental: In this sense, in order to evaluate if compounds 3c and 4a induce apoptosis by alterating the mitochondria transmembrane potential, this assay was performed by flow cytometry using the fluorochrome rhodamine 123, because this is able to accumulate in cells with unchanged mitochondrial transmembrane potential.
(§4) HL-60 cells (3 × 10^5) were plated in 24-well plates and treated with the compounds 3c (13 and 26 μM) and 4a (11 and 22 μM) for 72 h at 37 °C with 5% CO2. In all trials, doxorubicin was used as a positive control. After the incubation period, an aliquot of 500 μL of treated and untreated cells suspension was transferred to an Eppendorf tube and centrifuged to remove the supernatant and continue the protocol of the test. In the cell viability and annexin V assays, kits were used, ViaCount kit and guava nexin kit (Guava Technologies), respectively. The protocols performed in these tests followed the manufacturer’s instructions. For to analyze mitochondrial depolarization, rhodamine 123 fluorescent dye was used. In the assay for cell cycle analysis and DNA fragmentation propidium iodide was used. The experiments were performed on Guava EasyCyte HT (Merck-Millipore) flow cytometer, acquiring 5000 events. The data were analyzed in Guava-Soft™ software version 2.7. Three independent experiments were performed in triplicate.

HL-60 cells [4] = assay: Annexin V-FITC/7-AAD test, flow cytometry; assay type: cell-based, human; conditions: 0.11 μM, 72 h
Experimental: Aiming to better study the mechanism of induction of death involved in HL-60 cells after treatment with compounds 3c and 4a, a flow cytometric test was performed after double staining with annexin V-FITC/7-AAD. This assay is based on the ability of annexin V to bind with high affinity to phosphatidylserine which is translocated to the outer membrane of apoptotic cells and the 7-AAD dye binds to the DNA of cells with loss of membrane integrity. Thus, in this test it is possible to identify four distinct populations: viable cells [Annexin V(−) and 7-AAD(−)], initial apoptotic cells [Annexin V(+) and 7-AAD(−)], late apoptotic cells [Annexin V(+) and 7-AAD(+)] and dead cells [Annexin V(−) and 7-AAD (+)] [59].
as §4

Row | Structure (SMILES) | IC50 [1] | IC50 (CDK5/p25) | IC50 (CDK2/CyclinA) | IC50 (HASPIN) | IC50 (CLK1) | IC50 (AURKB) | IC50 (CDK9/CyclinT) | IC50 (CK1δ/ε) | IC50 (K562) | IC50 (MCF-7) | IC50 (HEp-2) | IC50 (MOLT-4) | IC50 (NCI-H292) | IC50 (HT-29) | IC50 (HL-60) | IC50 (GSK3 α/β) | melting point | IC50 (PIM1) | IC50 (DYRK1A) | other results
1 | NC(=O)NN=Cc1ccc(Cl)c(Cl)c1 [Compound 3f, 3,4-Dichlorobenzaldehyde Semicarbazone] | > 100 µM | > 10 µM | > 10 µM | > 10 µM | > 10 µM | > 10 µM | > 10 µM | > 10 µM | 26.3 ± 1.86 µM | 23.3 ± 1.55 µM | 8.61 ± 0.35 µM | > 100 µM | > 100 µM | > 100 µM | 14.2 ± 1.41 µM | > 10 µM | 246 to 247 °C | > 10 µM | > 10 µM | –
2 | CC(C)(C)c1ccc(C=NNC(N)=O)cc1 [Compound 3h, 4-Tert-Butylbenzaldehyde Semicarbazone] | 49.7 ± 1.06 µM | > 10 µM | > 10 µM | > 10 µM | 1.9 µM | > 10 µM | > 10 µM | > 10 µM | > 100 µM | 58.4 ± 1.86 µM | 42.9 ± 0.75 µM | 25.5 ± 1.9 µM | 48.8 ± 0.97 µM | 47 ± 0.75 µM | > 100 µM | > 10 µM | 216 to 218 °C | > 10 µM | > 10 µM | –
3 | NC(=O)N/N=C/c1ccco1 [Compound 3l, 2-Furfuraldehyde Semicarbazone] | > 100 µM | – | – | – | – | – | – | – | > 100 µM | > 100 µM | > 100 µM | > 100 µM | > 100 µM | > 100 µM | > 100 µM | – | 202 to 204 °C | – | – | antiproliferative activity against the tested cell lines [2]: inactive
4 | COc1cccc2c1C(=O)c1c(O)c3c(c(O)c1C2=O)C[C@@](O)(C(=O)CO)C[C@@H]3O[C@H]1C[C@H](N)[C@H](O)[C@H](C)O1 [Doxo, doxorubicin, reference compound] | 5.33 ± 0.62 µM | – | – | – | – | – | – | – | 1.47 ± 0.09 µM | 0.2 ± 0.03 µM | 1.28 ± 0.11 µM | 0.73 ± 0.08 µM | 0.18 ± 0.02 µM | 0.73 ± 0.09 µM | 0.11 ± 0.01 µM | – | – | – | – | depolarized cells (HL-60 cells [3]): 41.8%; cells in initial apoptosis [Annexin V(+) and 7-AAD(−)] (HL-60 cells [4]): 23.7%; cells in late apoptosis [Annexin V(+) and 7-AAD(+)] (HL-60 cells [4]): 19%
